In the experiment the test system is rat cardiac allografts. In words: Rat cardiac allograft study, Allograft Study 4 (Table 22).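 Also: heterotopic abdominal heart transplants from Lewis × Brown Norway F1 donors into male Lewis rats, graft beating checked daily by flank palpation, rejection defined as complete stop of heartbeat, transplant day 0.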 As to conditions: s.c., GG5/3 3 mg/kg, compounds 30 mg/kg.

Description: Hearts from Lewis X Brown Norway F1 hybrids were transplanted to the abdominal great vessels of Lewis recipients using standard microvascular techniques. Both rat strains were male inbred rats, weighing 200-300 g. Food and water was available at all times except during surgical and dosing procedures. The day of transplantation was noted as day 0. Twelve hours following the last dose approximately 1 ml of blood was collected into lithium/heparin anti-coagulant tubes. If any graft was rejected prior to the last day of dosing, blood samples were taken 12 hours after dosing on the day that graft rejection was noted. All blood samples were centrifuged at 3000 rpm for 10 minutes and the plasma was harvested, frozen on dry ice and stored frozen at −20 C prior to analysis. Allograft survival in the rats was evaluated by daily palpation of the transplanted heart through the recipient's flank. Rejection was taken as the day of complete cessation of the graft's heart beat. Upon determination of rejection, the abdomen of the recipient was incised and retracted to confirm cessation of the heart beat in the transplanted heart. If cessation of the heart beat was not confirmed the abdomen was surgically closed, and the grafted heart was evaluated daily.
Cardiac allografts were established. Dosing of compounds began on day −2, 2 days prior to transplantation and continued through day +10. […] The vehicle control, 0.9% saline, pH adjusted to a value of 5, to match the dosing solution containing the N-[N-(3-pyridinesulfonyl)-L-3,3-dimethyl-4-thiaprolyl]-0-[1-methylpiperazin-4-ylcarbonyl]-L-tyrosine isopropyl ester, was administered via the same route, i.e. every 12 hours, day −2 through day +10. The antibody, GG5/3 in 0.9% saline, was administered at 3 mg/kg, s.c., on day 0, +3, +7 and +10. All GG5/3 animals received twice daily s.c. injections of 0.9% saline, every 12 hours, from day −2 through day +10. The vehicle control, 0.9% saline, was administered daily, s.c., day 0 through day +10. All dosing solutions were formulated daily at a constant dose volume of 5 ml/kg. The site of injection was rotated at each injection through four possible sites: right and left fore flank, right and left rear flank. A total of 21 allografts, amongst 5 groups, were evaluated in the study. […] Two animals within the 0.9% saline group received saline adjusted to a pH a value of 5. (The pH value of the N-[N-(3-pyridinesulfonyl)-L-3,3-dimethyl-4-thiaprolyl]-0-[1-methylpiperazin-4-ylcarbonyl]-L-tyrosine isopropyl ester dosing solution.) The remaining two animals received saline of pH 7. Group 2 consisted of 6 animals treated with the monoclonal antibody, GG5/3. […] Twelve hours following the last dose approximately 1 ml of blood was collected into lithium/heparin anti-coagulant tubes. If any graft was rejected prior to the last day of dosing, blood samples were taken 12 hours after dosing on the day that graft rejection was noted. All samples were centrifuged at 3000 rpm for 10 minutes and the plasma was harvested, frozen on dry ice and stored frozen at −20 C prior to dispatch for analysis. Allograft survival in the rats was evaluated by daily palpation of the transplanted heart through the recipient's flank. Rejection was taken as the day of complete cessation of graft's heart beat. Upon determination of rejection, the abdomen of the recipient was incised to confirm cessation of the heart beat in the transplanted heart. If cessation of the heart beat was not confirmed the abdomen was surgically closed, and the graft was evaluated daily.

Regarding `CC(C)OC(=O)[C@H](Cc1ccc(OC(=O)N2CCN(C)CC2)cc1)NC(=O)[C@H]1N(S(=O)(=O)c2cccnc2)CSC1(C)C`, the “number of surviving grafts” value (day 0) is given as 6; the “number of surviving grafts” value (day 1) amounted to 6; the “number of surviving grafts” value (day 2) is 6; the “number of surviving grafts” value (day 3) was determined as 6; the “number of surviving grafts” value (day 4) was 6; the “number of surviving grafts” value (day 5) was 6. The “number of surviving grafts” value by setting is: (day 6) 6; (day 7) 6; (day 8) 6; (day 9) 5; (day 10) 4; (day 11) 4. The “number of surviving grafts” value (day 12) was 4; the “number of surviving grafts” value (day 13) came to 4; the “number of surviving grafts” value (day 14) is 4; the “number of surviving grafts” value (day 15) is listed as 4; the “number of surviving grafts” value (day 16) was 3; the “number of surviving grafts” value (day 17) is listed as 3. The “number of surviving grafts” value (day 18) came out at 3 and the “number of surviving grafts” value (day 19) is listed as 3.

These data come from patent publication US20060004019A1, “Steroid sparing agents and methods of using same” (priority 2004, published 2006).
